From article PMC7496286, “The Selectivity of Fosfosal for STAT5b over STAT5a is Mediated by Arg566 in the Linker Domain” (Chembiochem, 2020)
Numbering of substitutions follows the chain as printed.

Legend:
[1] = molecular target: T1, STAT5b-6M (Gln636Pro/Met639Asn/Phe640Leu/Met644Lys/Asn664Ser/Tyr679Phe) (Homo sapiens, UniProt P51692, F640L/M639N/M644K/N664S/Q636P/Y679F); experiment: FP-based competitive binding assay, STAT5b-6M
T1 construct: His; made in house
T1 sequence (P51692 1-787 Q636P/M639N/F640L/M644K/N664S/Y679F): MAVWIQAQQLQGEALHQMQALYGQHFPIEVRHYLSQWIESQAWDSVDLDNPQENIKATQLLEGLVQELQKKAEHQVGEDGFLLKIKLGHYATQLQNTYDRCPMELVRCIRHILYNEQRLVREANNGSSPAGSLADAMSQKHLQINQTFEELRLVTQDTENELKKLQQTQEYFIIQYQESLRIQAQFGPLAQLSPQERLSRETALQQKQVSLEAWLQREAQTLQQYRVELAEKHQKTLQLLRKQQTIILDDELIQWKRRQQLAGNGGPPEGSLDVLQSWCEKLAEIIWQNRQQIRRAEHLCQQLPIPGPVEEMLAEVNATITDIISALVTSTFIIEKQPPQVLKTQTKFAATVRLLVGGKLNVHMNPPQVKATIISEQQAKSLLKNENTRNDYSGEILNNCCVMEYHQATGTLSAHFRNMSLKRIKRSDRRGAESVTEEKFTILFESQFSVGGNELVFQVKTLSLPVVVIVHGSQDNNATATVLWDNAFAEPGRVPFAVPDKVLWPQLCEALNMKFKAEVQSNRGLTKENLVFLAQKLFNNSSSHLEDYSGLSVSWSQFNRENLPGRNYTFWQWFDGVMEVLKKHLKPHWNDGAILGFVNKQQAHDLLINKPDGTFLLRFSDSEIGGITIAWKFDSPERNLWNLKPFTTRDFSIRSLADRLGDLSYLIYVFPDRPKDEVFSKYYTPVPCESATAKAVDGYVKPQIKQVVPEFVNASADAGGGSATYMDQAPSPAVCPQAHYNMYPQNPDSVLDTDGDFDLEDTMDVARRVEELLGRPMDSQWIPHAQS
Experimental: (§1) Fluorescence polarization assays
(§2) The ability of test compounds to displace 5-carboxyfluorescein-GY(PO3H2)LVLDKW (final concentration: 10 nM) from the SH2 domain of STAT5a/b proteins was analyzed. Proteins […]
(§3) was applied in dilution series comprising the following concentrations: 0.024 – 200 µM […]
(§4) and 0.146 – 600 µM (STAT5b Arg566Glu), respectively. The assays were performed in buffer containing 10 mM Tris, 50 mM NaCl, 1 mM DTT, 1 mM EDTA and 0.1% (v/v) NP-40. Fosfosal was dissolved in DMSO. STAT5a/b proteins and fosfosal were incubated at room temperature for 1 h before adding peptide. Samples were transferred to 384-well microtiter plates and fluorescence polarization was read after a further 1 h incubation time. All measurements were performed in triplicate (n=3), except for STAT5b (n=6) and STAT5a Trp566Arg (n=4). Percent binding was calculated based on a logarithmic curve fit using OriginPro 8G software. IC50 values were converted to Ki values using the published equation.[4] […]
(§5) [4] Z. Nikolovska-Coleska, R. Wang, X. Fang, H. Pan, Y. Tomita, P. Li, P. P. Roller, K.
(§6) Krajewski, N. G. Saito, J. A. Stuckey, S. Wang, Anal. Biochem. 2004, 332, 261-273.

STAT5b Arg566Trp = molecular target: T2, STAT5b Arg566Trp (Homo sapiens, UniProt P51692, R566W); experiment: FP-based competitive binding assay, STAT5b Arg566Trp
T2 construct: His; made in house
T2 sequence (P51692 1-787 R566W): T1 sequence (P51692 1-787 Q636P/M639N/F640L/M644K/N664S/Y679F) with R566W, P636Q, N639M, L640F, K644M, S664N, F679Y
Experimental: as §1, §2, §3, §4, §5, §6

STAT5b Met644Lys = molecular target: T3, STAT5b Met644Lys (Homo sapiens, UniProt P51692, M644K); experiment: FP-based competitive binding assay, STAT5b Met644Lys
T3 construct: His; made in house
T3 sequence (P51692 1-787 M644K): T1 sequence (P51692 1-787 Q636P/M639N/F640L/M644K/N664S/Y679F) with P636Q, N639M, L640F, S664N, F679Y
Experimental: as §1, §2, §3, §4, §5, §6

SMILES	Kd [1] [µM]	Kd (STAT5b Arg566Trp) [µM]	Kd (STAT5b Met644Lys) [µM]	IC50 ([1]; STAT5b-6M) [µM]	Ki ([1]; STAT5b-6M, Ki calculated from IC50) [µM]	increase of activity against STAT5b-6M compared to wild type STAT5b ([1]; ratio of Ki values) [fold]	inhibition at 600 µM (STAT5b Arg566Trp; STAT5b Arg566Trp, 600 μM, the highest concentration tested) [%]	IC50 (STAT5b Met644Lys; STAT5b Met644Lys) [µM]	Ki (STAT5b Met644Lys; STAT5b Met644Lys, Ki calculated from IC50) [µM]
CC(C)C[C@H](NC(=O)[C@H](Cc1ccc(OP(=O)(O)O)cc1)NC(=O)CNC(=O)c1ccc2c(c1)C(=O)OC21c2ccc(O)cc2Oc2cc(O)ccc21)C(=O)N[C@H](C(=O)N[C@@H](CC(C)C)C(=O)N[C@@H](CC(=O)O)C(=O)N[C@@H](CCCCN)C(=O)N[C@@H](Cc1c[nH]c2ccccc12)C(=O)O)C(C)C [5-carboxyfluorescein-GY(PO3H2)LVLDKW]	0.085	0.289	0.026						
O=C(O)c1ccccc1OP(=O)(O)O [fosfosal, O‐phosphorylated salicylic acid]				21.3 ± 1.2	10.7 ± 0.6	~3	24 ± 2	36.6 ± 2	17.2 ± 0.9
